Experimental data taken from US20070066606A1, “Benzylbenzimidazolyl derivatives” (priority 2003, published 2007).

Target: TIE-2 (Homo sapiens, UniProt Q02763)
Assay: TIE-2 kinase flashplate assay (phosphorylation of poly(Glu, Tyr) with 33P-ATP)
Format: biochemical
Conditions: read-out: Inhibition of TIE-2 IC50
Description: The TIE-2 tests can be carried out, for example, analogously to the methods indicated in WO 02/44156.
The assay determines the inhibiting activity of the substances to be tested in the phosphorylation of the substrate poly(Glu, Tyr) by Tie-2 kinase in the presence of radioactive ^33P-ATP. The phosphorylated substrate binds to the surface of a “flashplate” microtitre plate during the incubation time. After removal of the reaction mixture, the microtitre plate is washed a number of times and the radioactivity on its surface is subsequently measured. An inhibiting effect of the substances to be measured results in lower radioactivity compared with an undisturbed enzymatic reaction.

TIE-2, sequence (Q02763 23-1124, species assumed): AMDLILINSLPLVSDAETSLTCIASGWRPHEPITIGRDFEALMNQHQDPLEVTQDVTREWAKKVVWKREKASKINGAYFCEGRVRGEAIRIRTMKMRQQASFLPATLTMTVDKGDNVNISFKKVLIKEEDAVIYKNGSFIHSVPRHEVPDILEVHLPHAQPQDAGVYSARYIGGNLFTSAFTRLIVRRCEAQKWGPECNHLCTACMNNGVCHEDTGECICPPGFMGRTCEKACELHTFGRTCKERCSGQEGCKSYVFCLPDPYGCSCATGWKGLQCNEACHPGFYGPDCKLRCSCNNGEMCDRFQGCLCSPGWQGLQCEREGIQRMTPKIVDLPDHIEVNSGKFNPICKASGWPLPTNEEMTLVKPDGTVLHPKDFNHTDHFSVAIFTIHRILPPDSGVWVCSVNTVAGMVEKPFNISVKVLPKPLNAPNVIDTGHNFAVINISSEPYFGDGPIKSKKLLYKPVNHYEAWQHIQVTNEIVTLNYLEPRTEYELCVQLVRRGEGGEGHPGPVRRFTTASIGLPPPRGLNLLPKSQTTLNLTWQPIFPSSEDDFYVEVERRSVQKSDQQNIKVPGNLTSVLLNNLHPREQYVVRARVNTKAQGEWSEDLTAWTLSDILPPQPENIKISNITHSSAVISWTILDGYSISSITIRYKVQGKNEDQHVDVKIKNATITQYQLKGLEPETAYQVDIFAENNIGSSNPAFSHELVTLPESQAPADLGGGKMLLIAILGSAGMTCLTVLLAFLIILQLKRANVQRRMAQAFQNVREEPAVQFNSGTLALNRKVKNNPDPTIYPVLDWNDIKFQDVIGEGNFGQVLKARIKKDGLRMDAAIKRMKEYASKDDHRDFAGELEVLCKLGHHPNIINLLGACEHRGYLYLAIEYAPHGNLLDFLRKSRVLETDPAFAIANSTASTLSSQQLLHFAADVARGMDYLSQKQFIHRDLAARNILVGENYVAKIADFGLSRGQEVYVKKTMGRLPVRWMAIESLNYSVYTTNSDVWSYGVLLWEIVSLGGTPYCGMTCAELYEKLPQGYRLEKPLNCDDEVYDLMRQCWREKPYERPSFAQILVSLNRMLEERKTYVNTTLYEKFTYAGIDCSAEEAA

IC50 [nM] | SMILES
2780 | Nc1nc2cc(Br)ccc2n1Cc1ccc(NS(=O)(=O)c2cccc(Cl)c2Cl)cc1 [N-[4-(2-amino-5-bromo-benzimidazol-1-ylmethyl)-phenyl]-2,3-dichloro-benzenesulfonamide]
320 | Nc1nc2cc(CCCO)ccc2n1Cc1ccc(NS(=O)(=O)c2cccc(Cl)c2Cl)cc1 [N-{4-[2-amino-5-(3-hydroxy-propyl)benzimidazol-1-yl-methyl]phenyl}-2,3-dichloro-benzenesulfonamide]
